Assay results taken from patent publication US11246949B2, “Imaging contrast agents and uses thereof” (The Research Foundation for The State University of New York, priority 2011, dated 2022).

Legend:
[1] = Dissociation of the metal ion complex (kinetic inertness); assay type: physicochemical
[2] = pH-potentiometric titrations: acid-dissociation and ligand-Fe(II) equilibrium constants; assay type: physicochemical; conditions: for formation constant log K (binding of macrocycle to metal ion): 100 mM NaCl
Experimental: FIG. 10. Representative pH-potentiometric titrations for Fe(L1) and Fe(L3) in 100 mM NaCl at 25° C.
Fe(II) paraCEST agents were developed by preparing ligands that stabilize Fe(II) and Ni(II), contain multiple exchangeable protons to enhance the CEST effect and form six or eight coordinate complexes to protect the Fe(II) from binding additional ligands that might complicate the CEST signal. The sexadentate ligands contained the macrocycle, 1,4,7-triazacyclononane, with three pendent groups while the octadentate ligands contained 1,4,7,10-tetraazacyclododecane and four pendent groups (FIG. 1 and FIG. 2). Pyridine pendent groups stabilize Fe(II) relative to Fe(III) (L2, L3), and amide pendent groups are stabilizing of Fe(II) (L1). For example, the pyridine groups in Fe(L3) lead to a high reduction potential of +930 mV vs. NHE. Amide groups contain exchangeable protons and have been commonly used as a basis for Ln(III) paraCEST agents. In contrast, amino pyridine pendent groups and the benzimidazole groups have exchangeable protons that are one bond further away from the Fe-coordinated nitrogen of the pyridine ring. Exchangeable protons close to the Fe(II) center as well as more remotely located protons appended to a ligand pi-system have been studied in this work in order to capitalize on both the dipolar and contact shift contributions of paramagnetic Fe(II). The strategy of using exchangeable protons that are remote from the metal ion center was explored in order to capitalize on both the dipolar and contact shift contributions of paramagnetic Fe(II). Fe(II) complexes were prepared in acetonitrile or in aqueous solution by simple addition of the free base form of the ligands to Fe(CF3SO3)2.

[3] = Ascorbate consumption (redox cycling, reactive oxygen species generation); conditions: 100 μM ascorbate, 10 μM Fe(II), 10 μM ligand, 10 mM HEPES, pH 7.4, 37° C.
[4] = Electrochemical potential E° vs. NHE; assay type: physicochemical; conditions: 100 mM tetrabutylammonium hexafluorophosphate in acetonitrile
Excerpt: In an embodiment, the compounds of the invention are stable towards chemical reaction in an oxidative environment (i.e., in the presence of biologically relevant concentrations of peroxide or oxygen). In an embodiment, the stability in an oxidative environment can be related to the reduction potential of the complex. In an embodiment, the compounds of the present invention have a reduction potential greater than 600 mV vs. NHE (Normal Hydrogen Electrode) as shown in Table 1. Generally, the compounds of the invention have a reduction potential above 800 mV vs. NHE.

[5] = Persistence of high spin Fe(II) oxidation state in aqueous solution (1H NMR, μeff); assay type: physicochemical; conditions: atmospheric oxygen, several days
Experimental: Effective magnetic moments are characteristic of high spin Fe(II) at 5.1 BM and 5.8 BM for Fe(L1) and Fe(L2), These were measured in 100 mM NaCl in D2O, pH 7.4, and D2O at pH 7.0, respectively. The ^1H NMR spectra of the two complexes show highly shifted proton resonances (FIGS. 4-5). There are nine non-exchangeable proton resonances for Fe(L2) consistent with trigonal prismatic geometry as observed previously for Fe(L3) and three sets of four chemically inequivalent proton resonances in the macrocycle backbone. […] The exchangeable amide and amine protons were identified by comparison of the ^1H NMR spectra of the complexes in H2O and […]. For Fe(L1), the amide protons are highly shifted downfield, appearing at 77 ppm. The amine protons of Fe(L2) are only slightly shifted and are observed at 11 ppm.
Generally, macrocyclic complexes in FIG. 1 are prepared from the macrocycle and Fe(II) salt such as FeCl2, or Fe(CF3SO3)2 in acetonitrile at room temperature with argon bubbled through the solvent. This helps to ensure that a negligible amount of O2 is present in the reaction flask. In the absence of an inert atmosphere, difficulties in maintaining the desired oxidation state may arise through mechanisms such as oxidation of the metal to Fe(III) prior to complexation with the ligand. […]

SMILES | resistance to dissociation >12 h, neutral pH [1] | formation constant log K (binding of macrocycle to metal ion) [2] | Ascorbate consumption [3] | E° vs. NHE [4] [mV] | further results
NC(=O)CN1CCN(CC(N)=O)CCN(CC(N)=O)CC1.[Ni+2] [Ni(L1)] | good | – | – | – | inertness towards dissociation in solution ([1]; neutral and acidic pH, at least 24 hours): inert towards dissociation
NC(=O)CN1CCN(CC(N)=O)CCN(CC(N)=O)CC1.[Fe+2] [Fe(L1)] | Moderate | 13.5 | 7.2 ± 0.96 ×10^−5 (s^−1) | 860 ± 9 | Log K1 ([2]; K1 = [LH+]/([L][H+]), 1.05 mM L, 1.0 mM Fe(OTf)2, 0.10 M NaCl, 25° C.): 10.19 ± 0.11; Log K2 ([2]; K2 = [LH2 2+]/([LH+][H+]), 0.10 M NaCl, 25° C.): <2; Log K3 ([2]; K3 = [LH3 3+]/([LH2 2+][H+]), 0.10 M NaCl, 25° C.): <2; Log K Fe-L ([2]; KFeL = [FeL2+]/([Fe2+][L]), 0.10 M NaCl, 25° C.): 13.47 ± 0.25; Log K FeL-OH ([2]; KFeL-OH = [FeL-OH+]/([FeL2+][OH−]), 0.10 M NaCl, 25° C.): 9.43 ± 0.18; Log K Fe-LH ([2]; KFeLH = [FeLH3+]/([FeL2+][H+]), 0.10 M NaCl, 25° C.): 5.54 ± 0.14; % dissociation over 12 hours ([1]; 12 hours): <9%; resistance to oxidation to Fe(III) [5]: resistant to oxidation to Fe(III)
O=C([O-])CN(CCN(CC(=O)[O-])CC(=O)[O-])CC(=O)[O-].[Fe+3] [Fe(EDTA), reference compound] | – | – | 77 ± 13 ×10^−5 (s^−1) | 390 | –
Cc1nc(CN2CCN(Cc3ccc(N)c(C)n3)CCN(Cc3ccc(N)c(C)n3)CC2)ccc1N.[Fe+2] [Fe(L2)] | good | – | – | – | resistance to oxidation to Fe(III) [5]: resistant to oxidation to Fe(III)
NC(=O)CN1CCN(CC(N)=O)CCN(CC(N)=O)CCN(CC(N)=O)CC1.[Fe+2] [Fe(L4)] | excellent | 7.5 | 4.0 ± 1.0 ×10^−5 (s^−1) | 800 ± 5 | % dissociation over 12 hours ([1]; 12 hours): 0%; dissociation after incubation ([1]; 12 hours, 37° C., pH 4 or neutral pH with five equivalents of CuCl2 or ZnCl2): no dissociation
CC(O)CN1CCN(CC(C)O)CCN(CC(C)O)CCN(CC(C)O)CC1.[Fe+2] (centres unmarked) [Fe(L6)] | Moderate | 9.3 | – | – | –
Nc1cccc(CN2CCN(Cc3cccc(N)n3)CCN(Cc3cccc(N)n3)CC2)n1.[Fe+2] [Fe(L8)] | good | – | – | – | –
CC(O)CN1CCNCCN(CC(C)O)CCNCC1.[Fe+2] (centres unmarked) [Fe(L7)] | moderate | – | – | – | –
[Fe+2].c1ccc2[nH]c(CN3CCN(Cc4nc5ccccc5[nH]4)CCN(Cc4nc5ccccc5[nH]4)CC3)nc2c1 [Fe(L5)] | moderate | – | – | – | –
